Broadly, the Ki is the dissociation constant of the complex between target and ligand, obtained from inhibition or displacement.

The results in this text go back to US10844044B2 (Vanderbilt University, priority 2018, dated 2020).

One assay has as its target WDR5 (Homo sapiens (Human), UniProt P61964). Put plainly: TR-FRET binding assay (displacement of 10mer-Thr-FAM probe from WDR5).
Settings: not given
(TR-FRET usually uses a lanthanide donor and a delayed reading to cut background.)
With `Cn1ccn(Cc2cc(C(=O)N[C@H]3CCc4cc(F)ccc43)cc(-c3cccnc3C(F)(F)F)c2)c1=N` [Example 129, (S)—N-(5-Fluoro-2,3-dihydro-1H-inden-1-yl)-3-((2-imino-3-methyl-2,3-dihydro-1H-imidazol-1-yl)methyl)-5-(2-(trifluoromethyl)pyridin-3-yl)benzamide], the Ki was greater than 33 nM.

`COc1cc(CNC(=O)c2cc(Cn3ccn(-c4ccccc4)c3=N)cc(-c3ccc(F)cc3C)c2)cc(OC)c1` [Example 133, N-(3,5-Dimethoxybenzyl)-4′-fluoro-5-((2-imino-3-phenyl-2,3-dihydro-1H-imidazol-1-yl)methyl)-2′-methyl-[1,1′-biphenyl]-3-carboxamide] registered a Ki greater than 33 nM.

With `COc1cc(CNC(=O)c2cc(Cn3ccn(C)c3=N)cc(-c3ccc(F)cc3C(N)=O)c2)cc(OC)c1` [Example 152, N3′-(3,5-dimethoxybenzyl)-4-fluoro-5′-((2-imino-3-methyl-2,3-dihydro-1H-imidazol-1-yl)methyl)-[1,1′-biphenyl]-2,3′-dicarboxamide], the affinity corresponds to a Ki of 8.9 nM.

The same assay, now with this note: read-out: Ki for Inhibition of WDR5 by TR-FRET assay.
Take `Cc1cc([C@@H](NC(=O)c2cc(Cn3ccn(C)c3=N)cc(-c3cncnc3C(F)(F)F)c2)C2CC2)ccc1F` [Example 123, (S)—N-(Cyclopropyl(4-fluoro-3-methylphenyl)methyl)-3-((2-imino-3-methyl-2,3-dihydro-1H-imidazol-1-yl)methyl)-5-(4-(trifluoromethyl)pyrimidin-5-yl)benzamide]: the inhibition constant Ki was determined as 0.18 nM.

On to `C[C@H](NC(=O)c1cc(Cn2ccn(C)c2=N)cc(-c2cccnc2C(F)(F)F)c1)c1ccc(F)c(Cl)c1` [Example 124, (S)—N-(1-(3-chloro-4-fluorophenyl)ethyl)-3-((2-imino-3-methyl-2,3-dihydro-1H-imidazol-1-yl)methyl)-5-(2-(trifluoromethyl)pyridin-3-yl)benzamide], for which the Ki stood at 1 nM.

With `Cc1cc([C@@H](NC(=O)c2cc(Cn3ccn(-c4ccccc4)c3=N)cc(-c3cccnc3C(F)(F)F)c2)C2CC2)ccc1F` [Example 137, (S)—N-(Cyclopropyl(4-fluoro-3-methylphenyl)methyl)-3-((2-imino-3-phenyl-2,3-dihydro-1H-imidazol-1-yl)methyl)-5-(2-(trifluoromethyl)pyridin-3-yl)benzamide], the Ki is greater than 33 nM.

The same assay, now with this note: read-out: Ki for Inhibition of WDR5 by TR-FRET assay; TR-FRET, 10mer-Thr-FAM probe, WDR5-His tag 2 nM, pH 7.0.
`COc1cc(OC)cc(C(NC(=O)c2cc(Cn3ccn(C)c3=N)cc(-c3ncnc4c3CCCC4)c2)C2CC2)c1` (stereo not shown) [Example 96, N-(Cyclopropyl(3,5-dimethoxyphenyl)methyl)-3-((2-imino-3-methyl-2,3-dihydro-1H-imidazol-1-yl)methyl)-5-(5,6,7,8-tetrahydroquinazolin-4-yl)benzamide]: the Ki turned out to be 27 nM.

As for `Cc1cc(CNC(=O)c2cc(Cn3ccn(C)c3=N)cc(-c3ccc(F)cc3C(F)(F)F)n2)ccc1Cl` [Example 99, N-(4-Chloro-3-methylbenzyl)-6-(4-fluoro-2-(trifluoromethyl)phenyl)-4-((2-imino-3-methyl-2,3-dihydro-1H-imidazol-1-yl)methyl)picolinamide], the Ki was 1.1 nM.

`COc1cc(CNC(=O)c2cc(Cn3ccn(C)c3=N)cc(-c3ccc(F)cc3C(F)(F)F)n2)cc(OC)c1` [Example 100, N-(3,5-Dimethoxybenzyl)-6-(4-fluoro-2-(trifluoromethyl)phenyl)-4-((2-imino-3-methyl-2,3-dihydro-1-imidazol-1-yl)methyl)picolinamide]: the Ki stood at 0.71 nM.

In the case of `Cc1ccnc(C(NC(=O)c2cc(Cn3ccn(C)c3=N)cc(-c3ccc(F)cc3C(F)(F)F)n2)C2CC2)c1` (stereo not shown) [Example 101, N-(Cyclopropyl(4-methylpyridin-2-yl)methyl)-6-(4-fluoro-2-(trifluoromethyl)phenyl)-4-((2-imino-3-methyl-2,3-dihydro-1H-imidazol-1-yl)methyl)picolinamide], the Ki was 0.45 nM.

As for `COC(=O)CC(NC(=O)c1cc(Cn2ccn(C)c2=N)cc(-c2ccc(F)cc2C(F)(F)F)c1F)c1ccc(Cl)c(Cl)c1` (stereo not shown) [Example 110, Methyl 3-(3,4-dichlorophenyl)-3-(2,4′-difluoro-5-((2-imino-3-methyl-2,3-dihydro-1H-imidazol-1-yl)methyl)-2′-(trifluoromethyl)-[1,1′-biphenyl]-3-carboxamido)propanoate], the Ki was 0.1 nM.

Take `Cc1[nH]c(=O)ccc1-c1cc(Cn2ccn(C)c2=N)cc(C(=O)NCc2ccc(Cl)c(Cl)c2)c1` [Example 112, N-(3,4-Cichlorobenzyl)-3-((2-imino-3-methyl-2,3-dihydro-1-imidazol-1-yl)methyl)-5-(2-methyl-6-oxo-1,6-dihydropyridin-3-yl)benzamide]: the Ki was determined as 29 nM.

On to `Cc1cc([C@@H](NC(=O)c2cc(Cn3ccn(C)c3=N)cc(-c3cnc(F)cc3C)c2)C2CC2)ccc1F` [Example 113, (S)—N-(Cyclopropyl(4-fluoro-3-methylphenyl)methyl)-3-(6-fluoro-4-methylpyridin-3-yl)-5-((2-imino-3-methyl-2,3-dihydro-1H-imidazol-1-yl)methyl)benzamide], for which the Ki was greater than 33 nM.

As to `C[C@H](NC(=O)c1cc(Cn2ccn(C)c2=N)cc(-c2cccnc2C(F)(F)F)c1)c1ccc(C(F)(F)F)cc1` [Example 126, (S)-3-((2-Imino-3-methyl-2,3-dihydro-1H-imidazol-1-yl)methyl)-N-(1-(4-(trifluoromethyl)phenyl)ethyl)-5-(2-(trifluoromethyl)pyridin-3-yl)benzamide], the Ki amounted to 2.5 nM.

On to `Cn1ccn(Cc2cc(C(=O)N[C@H](c3ccc(F)cn3)C3CC3)cc(-c3cccnc3C(F)(F)F)c2)c1=N` [Example 128, (S)—N-(Cyclopropyl(5-fluoropyridin-2-yl)methyl)-3-((2-imino-3-methyl-2,3-dihydro-1H-imidazol-1-yl)methyl)-5-(2-(trifluoromethyl)pyridin-3-yl)benzamide], for which the inhibition constant Ki amounted to 23 nM.

Take `C[C@H](NC(=O)c1cc(Cn2ccn(C)c2=N)cc(-c2cccnc2C(F)(F)F)c1)c1ncc(F)cn1` [Example 130, (S)—N-(1-(5-Fluoropyrimidin-2-yl)ethyl)-3-((2-imino-3-methyl-2,3-dihydro-1H-imidazol-1-yl)methyl)-5-(2-(trifluoromethyl)pyridin-3-yl)benzamide]: the Ki is greater than 33 nM.

Regarding `COc1cc(CNC(=O)c2cc(Cn3ccn(CC4CC4)c3=N)cc(-c3ccc(F)cc3C)c2)cc(OC)c1` [Example 134, 5-((3-(Cyclopropylmethyl)-2-imino-2,3-dihydro-1H-imidazol-1-yl)methyl)-N-(3,5-dimethoxybenzyl)-4′-fluoro-2′-methyl-[1,1′-biphenyl]-3-carboxamide], the Ki was 38 nM.

As for `Cc1cc([C@@H](NC(=O)c2cc(Cn3ccn(C)c3=N)cc(-c3ccnc4c3CCC4)c2)C2CC2)ccc1F` [Example 136, (S)—N-(Cyclopropyl(4-fluoro-3-methylphenyl)methyl)-3-(6,7-dihydro-5H-cyclopenta[b]pyridin-4-yl)-5-((2-imino-3-methyl-2,3-dihydro-1H-imidazol-1-yl)methyl)benzamide], the Ki is less than 0.1 nM.

Take `Cc1ccnc(C(NC(=O)c2cc(Cn3ccn(C)c3=N)cc(OC(F)(F)F)c2)C2CC2)c1` (stereo not shown) [Example 145, N-(Cyclopropyl(4-methylpyridin-2-yl)methyl)-3-((2-imino-3-methyl-2,3-dihydro-1H-imidazol-1-yl)methyl)-5-(trifluoromethoxy)benzamide]: the Ki amounted to 0.95 nM.

With `Cn1ccn(Cc2cc(OC(F)(F)F)cc(C(=O)N[C@@H](CC(=O)O)c3cccc(C(F)(F)F)c3)c2)c1=N` [Example 146, (S)-3-(3-((2-Imino-3-methyl-2,3-dihydro-1H-imidazol-1-yl)methyl)-5-(trifluoromethoxy)benzamido)-3-(3-(trifluoromethyl)phenyl)propanoic acid], the Ki amounted to 10 nM.

`Cn1ccn(Cc2cc(C(=O)N[C@@H](CC(=O)O)c3cccc(C(F)(F)F)c3)c(F)c(-c3ccc(F)cc3C(F)(F)F)c2)c1=N` [Example 148, (S)-3-(2,4′-Difluoro-5-((2-imino-3-methyl-2,3-dihydro-1H-imidazol-1-yl)methyl)-2′-(trifluoromethyl)-[1,1′-biphenyl]-3-carboxamido)-3-(3-(trifluoromethyl)phenyl)propanoic acid]: the Ki is 0.29 nM.

With `Cc1ccnc([C@@H](NC(=O)c2cc(Cn3ccn(C)c3=N)cc(OC(F)(F)F)c2)C2CC2)c1` [Example 149, (S)—N-(Cyclopropyl(4-methylpyridin-2-yl)methyl)-3-((2-imino-3-methyl-2,3-dihydro-1H-imidazol-1-yl)methyl)-5-(trifluoromethoxy)benzamide], the Ki was 0.56 nM.

With `Cn1ccn(Cc2cc(C(=O)N[C@H](c3ccc(Cl)c(Cl)c3)C3CC3)cc(-c3ccc(F)cc3OC(F)F)c2)c1=N` [Example 150, (S)—N-(Cyclopropyl(3,4-dichlorophenyl)methyl)-2′-(difluoromethoxy)-4′-fluoro-5-((2-imino-3-methyl-2,3-dihydro-1H-imidazol-1-yl)methyl)-[1,1′-biphenyl]-3-carboxamide], the Ki stood at 0.13 nM.

With `N=c1n(Cc2cc(C(=O)N[C@H](c3ccc(Cl)c(Cl)c3)C3CC3)cc(-c3ccc(F)cc3OC(F)F)c2)ccn1C1CC1` [Example 151, (S)—N-(Cyclopropyl(3,4-dichlorophenyl)methyl)-5-((3-cyclopropyl-2-imino-2,3-dihydro-1H-imidazol-1-yl)methyl)-2′-(difluoromethoxy)-4′-fluoro-[1,1′-biphenyl]-3-carboxamide], the Ki came to 0.59 nM.

On to `Cn1ccn(Cc2cc(C(=O)N[C@H](c3ccc(Cl)c(Cl)c3)C3CC3)cc(-c3cccnc3C(F)(F)F)c2)c1=N` [Example 153, (S)—N-(Cyclopropyl(3,4-dichlorophenyl)methyl)-3-((2-imino-3-methyl-2,3-dihydro-1H-imidazol-1-yl)methyl)-5-(2-(trifluoromethyl)pyridin-3-yl)benzamide], for which the inhibition constant (Ki) amounted to 0.33 nM.
